This note sets out measurements from patent US10391166B2, “Short oligonucleotides as vaccine adjuvants and therapeutic agents” (priority 2013, dated 2019).

“Also recorded” adds a separate entry of the source.

Data set [1] concerns IRF3-luciferase reporter gene. The data set is described as follows: IRF3-luciferase reporter induction in HLE A549 cells (primary assay for NOD2 activation). Type of data set: cell-based, human. The note with it: 12 h incubation. How it is done: The evaluation of SMNH compounds for NOD2 activation was conducted by primary, secondary, and tertiary assays. In the primary assays, SMNH compounds were tested for the induction of IRF3 expression in HLE A549 cells, which are known to endogenously express NOD2. […] SB 44, a mixture of two isomers Rp and Sp, is a prodrug of SB 40. SB 1B—the Rp isomer of SB 44 and is shown as SB 44-1 in the FIGS. 1-2.
IRF3-luciferase transfected cells were incubated with either DMSO only (UT) or SMNH compounds (μM). Following 12 h incubation, luciferase activity was measured using Dual-Luciferase Reporter Assay System (Promega) according to the manufacturer's protocol. Transfection efficiency was normalized by measuring the expression of renilla Luciferase. Luciferase units (i.e., fold induction) were measured by standard methodology (mean±standard deviation; 3 independent experiments). The results are depicted in FIG. 1.
A general note: A reporter such as luciferase makes a cellular process visible.

Data set [2] deals with M. tuberculosis. Details: species or system C57Bl/6 mice. The note with it: mouse, in vivo.
The next data set has as its target T1, NOD2 (Homo sapiens, UniProt Q9HC29).
T1 construct: expressed in transfected cells; host or cells: HEK 293
The experiment in a line: IRF3-luciferase assay in HEK 293 cells transfected with NOD2. Type of data set: cell-based. As to conditions: HEK 293 transfected with NOD2, pcDNA and IRF3-luciferase; 1 μM; 12 h. Here is the method:
HEK 293 cells were transfected with NOD2, pcDNA and IRF3-luciferase. The cells were then incubated with ssRNA (0.5 mg/ml) or SMNH compounds (1 μM). Following 12 h incubation, Luciferase activity was measured as described previously. The luciferase assay results are presented as mean±S.D. from three independent experiments (detailed materials and methods employed in these assays, see: ref (28). The results are depicted in FIG. 2.

The procedure of data set [3]:
The objectives of this study were to determine potential toxic effects of SB 44 following daily oral dose administration for 14 days, and to evaluate the genotoxicity of SB 44 as determined by micronucleus evaluation. Male and female Sprague-Dawley rats were administered SB 44 daily at doses of 50, 200 and 500 mg/kg/day for 14 consecutive days. […] Micronucleus evaluations were performed to determine the potential genotoxicity of SB 44. Necropsies were performed on Day 15 for rats in the main study group and on Day 28 for rats in the recovery group.

For data set [4] the following is noted: human liver S9 fractions. How it is done: SB 44 (10 μM) was incubated with a mix containing S9 fraction (pooled from human) (1 mg/ml), NADPH (1.3 mM) UDPGA (5 mM), Alamethicin (10 μg/ml) in 1 ml of 1×PBS buffer. S-(5′-adenosyl)-L-methionine iodide (0.1 mM), adenosine 3′-phosphate 5′-phosphosulfate lithium salt hydrate (0.1 mM) and acetyl CoA (1 mM). The metabolite samples were evaluated by HPLC and LC/MS analysis.

A further data set relates to PBMCs. The format is cell-based.
Data set [5] relates to RIG-I and NOD2. Type of data set: cell-based. The note with it: receptor-deficient cells, exogenous RIG-I and NOD2.
For data set [6], the system named is peripheral blood mononuclear cells (PBMCs). The data set is described as follows: Multiplex assay for 28 cytokines in PBMCs. The format is cell-based, human. As to conditions: up to 50 μM.
Data set [7] relates to MDBK, Vero, and HFF cell lines. The data set is described as follows: in vitro. As to conditions: cell line not specified (table footnote). Here is the method: (§1) SB 44 was subjected to cytotoxicity evaluation against a panel of cell lines including Madin-Darby bovine kidney (MDBK), Vero, and HFF (human foreskin fibroblasts) to determine their CC50. Standard Microculture Tetrazolium Assay (MTT) assays were performed in 96-well plates using MDBK, Vero, and HFF cell lines (obtained from American Type Cell Collection). Controls included the nucleoside analogs 3TC, AZT, and ddC, as well as media without drugs. SDS was used as a positive cytotoxic control. All prodrugs were tested in triplicate at concentrations of 100, 300, and 1000 μM. Following a 24-hour incubation of cells with the test substance, the MTT assay was carried out.
(§2) Standard MTT assays were performed in 96-well plates using the Promega CellTiter96 Non-radioactive Cell Proliferation Assay Kit in conjunction with a 96-well Plate Reader (ThermoMax, Molecular devices), and MDBK, Vero, and HFF cell lines (obtained from ATCC). Several controls were employed including the nucleoside analogs 3TC, AZT, and ddC, as well as, media without drugs. SDS was used as a positive cytotoxic control. The compounds were tested in triplicate at concentrations of 100, 300, and 1000 μM. Following a 24-hour incubation of cells with the test substance, the MTT assay was carried out.

Data set [8] has as its system C57Bl/6 mouse bone marrow derived macrophages. The format is cell-based.
The next data set concerns MHC-II. Type of data set: cell-based, mouse.
A further data set can be described thus: in vitro. The note with it: bovine (MDBK), African green monkey (Vero), human (HFF). Here is the method:
as §1, §2

Data set [9] concerns RIG-I and NOD2. The experiment in a line: Induction of responder genes RIG-I and NOD2. Type of data set: cell-based.
In data set [10] the test system is M. tuberculosis. Details: species or system C57Bl/6 mice. As to conditions: mouse, in vivo. The source holds these as a separate data set.
The test system of a further data set is interferon-β (IFN-β). The data set is described as follows: IFN-β production from human lung epithelial A549 cells. Type of data set: cell-based.
For a further data set, the system named is IL-1β. The experiment in a line: Mature IL-1β ELISA in mouse bone marrow derived primary macrophages. The format is cell-based. The note with it: alone or with MDP or BCG, caspase blockade with ZVAD-fmk. Here is the method: C57Bl/6 mouse bone marrow derived primary macrophages were treated with SB 1A or SB 1B alone, MDP alone or in combination as indicated for 4 hrs. BCG was used for infection for 4 hrs and supernatants collected 18 hr later titrated for mature IL1β using ELISA. Macrophages were first treated with ZVAD-fmk (2 hrs) for caspase blockade followed by activation with SB 1A and SB 1B (4 hrs) and BCG infection (4 hrs). Cytokine was measured 18 hrs later.

T1 sequence (Q9HC29 whole entry, species assumed): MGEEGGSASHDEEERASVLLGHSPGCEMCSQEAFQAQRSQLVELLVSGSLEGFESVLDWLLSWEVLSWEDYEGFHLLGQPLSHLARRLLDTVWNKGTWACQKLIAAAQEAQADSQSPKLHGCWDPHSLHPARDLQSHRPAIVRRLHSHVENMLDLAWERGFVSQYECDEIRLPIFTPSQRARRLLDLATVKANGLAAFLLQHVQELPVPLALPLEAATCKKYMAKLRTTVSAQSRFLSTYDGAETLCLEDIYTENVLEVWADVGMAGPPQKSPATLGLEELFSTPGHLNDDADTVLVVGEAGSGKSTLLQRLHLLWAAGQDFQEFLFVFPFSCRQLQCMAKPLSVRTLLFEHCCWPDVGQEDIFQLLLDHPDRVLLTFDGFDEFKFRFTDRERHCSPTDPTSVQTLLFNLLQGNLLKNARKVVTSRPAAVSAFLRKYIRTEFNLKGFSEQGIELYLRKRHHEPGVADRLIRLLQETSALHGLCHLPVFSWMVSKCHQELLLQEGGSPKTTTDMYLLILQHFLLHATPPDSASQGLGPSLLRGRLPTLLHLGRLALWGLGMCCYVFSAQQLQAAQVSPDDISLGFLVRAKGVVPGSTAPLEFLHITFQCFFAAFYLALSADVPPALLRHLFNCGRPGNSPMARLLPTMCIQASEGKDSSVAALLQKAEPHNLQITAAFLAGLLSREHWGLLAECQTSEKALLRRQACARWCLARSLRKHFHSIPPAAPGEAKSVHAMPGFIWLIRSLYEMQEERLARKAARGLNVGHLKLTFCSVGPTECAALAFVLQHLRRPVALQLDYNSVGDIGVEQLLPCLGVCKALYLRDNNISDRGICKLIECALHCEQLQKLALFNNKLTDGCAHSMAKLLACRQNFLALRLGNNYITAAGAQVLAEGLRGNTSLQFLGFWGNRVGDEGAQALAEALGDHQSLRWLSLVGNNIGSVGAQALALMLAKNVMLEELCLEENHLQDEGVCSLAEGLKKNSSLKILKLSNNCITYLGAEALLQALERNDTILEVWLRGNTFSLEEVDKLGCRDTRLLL

Take `COC1C(OP(=O)(S)OCC2OC(n3cnc4c(N)ncnc43)CC2O)C(CO)OC1n1ccc(=O)[nH]c1=O` (mixture of isomers) [SB 40]: the “IRF3 activation (IRF3-luciferase)” value in data set [1] is “induced IRF3 activation”. Further, the “anti-TB T cell function of mice” value in the data set with M. tuberculosis [2] is recorded as “dramatic increase in anti-TB T cell function of mice”. Further, the “IRF3 activation mediated via NOD2” value on NOD2 is reported as “mediated via NOD2 activation”. Further, the “systemic exposure females versus males, largest difference” value in data set [3] (Day 14, 500 mg/kg dose groups) is given as “about twofold”. Also, in [3] (SB 40 in plasma, each dose of SB 44), the “Day 14 Cmax and AUClast values versus Day 1” value is listed as “higher than those on Day 1”. For the same compound, the “dose relationship for Cmax and AUClast” value in data set [3] (SB 40 in plasma, male and female rats, Days 1 and 14) was “nonlinear dose relationship”. The “phase II conjugative reactions” value in [4] is listed as “no apparent evidence of any phase II conjugative reactions”. Besides, in the data set on PBMCs, the “IFN production in the presence of BCG” value was “modest augmentation of IFN production”. For the same compound, the “enhancement of ISG-56 expression over that induced by PolyI-PolyC” value with RIG-I and NOD2 [5] was 2 fold. The “cytokine induction in human PBMC cultures” value in data set [6] was “did not cause cytokine induction”. In [7], the CC50 was above 1000 µM. For the same compound, in [8], the “antigen presentation (Antigen-85B) in macrophages” value is “enhance antigen presentation in vitro”. In the data set with MHC-II, the “surface expression of MHC-II” value is “increase MHC-II in MΦs”.

Turning to `COC1[C@@H](OP(=O)(OC[C@H]2O[C@@H](n3cnc4c(N)ncnc43)C[C@H]2O)SCOC(=O)OC(C)C)[C@@H](CO)O[C@H]1n1ccc(=O)[nH]c1=O` (stereo partly drawn) [Compound 3], the CC50 at 24 h in the data set “in vitro” was above 1000 µM.

`COC1C(OP(=O)(OCC2OC(n3cnc4c(N)ncnc43)CC2O)SCOC(=O)OC(C)C)C(CO)OC1n1ccc(=O)[nH]c1=O` (stereo not drawn) [SB 1B]: the “IRF3 activation (IRF3-luciferase)” value in [1] is given as “induced IRF3 activation”. Further, in the data set with M. tuberculosis [2], the “Mtb counts of lungs” value is reported as “reducing Mtb counts of lungs better than either BCG or MDP+BCG”, the “Mtb counts of spleens” value is “better than BCG vaccine in reducing Mtb counts of spleens”, the “adjuvant efficacy with BCG vaccine against tuberculosis” value is recorded as “more efficacious as an adjuvant than SB 44; also recorded: better than muramyl dipeptide (MDP) as adjuvants” and the “anti-TB T cell function of mice” value is “dramatic increase in anti-TB T cell function of mice”. In addition, in the data set on M. tuberculosis [2], the “numbers of multi-functional T cells” value is on record as “enhances the numbers of multi-functional T cells compared to BCG vaccine” and the “tetramer specific CD8 T cells” value is given as “comparable levels of tetramer specific CD8 T cells”. Besides, the “induction of responder genes RIG-I and NOD2” value in the data set with RIG-I and NOD2 [9] is “induction of responder genes RIG-I and NOD2”. Also, the “IRF3 activation mediated via NOD2” value on NOD2 was “mediated via NOD2 activation”. For the same compound, in the data set on M. tuberculosis [10], the “antigen specific CD8 / memory T cells in lungs of re-challenged mice” value was “boost the magnitude of antigen specific memory T cells; also recorded: induces a robust expansion of antigen specific CD8 T cells”, the “protection against re-challenge of tuberculosis” value was “protects twice as better than BCG; also recorded: induce protection against re-challenge of tuberculosis in mice” and the “recall response against re-challenge with tuberculosis” value is “retain the ability to mount a better recall response”. For the same compound, the “antigen presentation (Antigen-85B) in macrophages” value in [8] is “enhance antigen presentation in vitro; also recorded: retain full activity”. For the same compound, the “surface expression of MHC-II” value in the data set on MHC-II is on record as “increase MHC-II in MΦs”. The “production of IFN-β” value in the data set with interferon-β (IFN-β) is reported as “results in production of IFN-β”. Further, the “induction of mature IL-1β” value with IL-1β was “induce IL-1β only in combination with either MDP or intact BCG bacilli”.
